Nine compounds from patent publication US8501755B2, “Tetrahydropyridothienopyrimidine compounds and methods of use thereof” (Bayer Intellectual Property GmbH, priority 2006, dated 2013) can be followed below.

Common to all, as to format: cell-based
One assay has as its system A431 cells. Put plainly: In vitro tumor cell proliferation assay (Cell Titer-Glo) in A431 cells. As to conditions: Homo sapiens, A-431, 72 h, A431 human epidermoid carcinoma overexpressing HER1; 72 hours exposure; read-out: IC50, activities in A431 cell lines. The gist of the method:
(§1)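 Viability after 72 h drug exposure at 37 °C was read as CellTiter-Glo ATP luminescence, giving IC50. Cells (2.5×10^3/well, RPMI + 10% FBS) were compound-treated one day post-seeding, 0.1% DMSO final: A431 overexpresses HER1, N87 overexpresses HER2 and HER1.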
(In general: ATP-based viability assays read luminescence as a measure of living cells.)

The test system of a further assay is H1975 cells. Kind of assay: In vitro tumor cell proliferation assay (Cell Titer-Glo) in H1975 cells. As to conditions: NCI-H1975; H1975 human NSCLC expressing mutant HER1 (L858R,T790M); 72 hours exposure; read-out: IC50, activities in H 1975 cell lines. The gist of the method:
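After 72 h compound exposure at 37° C (top 10 uM down to 64 pM, 0.1% DMSO), viability of EGFR L858R/T790M-mutant H1975 cells was read as ATP luminescence.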

The subject of a further assay is N87. Put plainly: In vitro tumor cell proliferation assay (Cell Titer-Glo) in N87 cells. Particulars: N87 human gastric carcinoma overexpressing HER2 and HER1; 72 hours exposure; read-out: IC50, activities in N87 cell lines. The gist of the method:
as §1

Usually IC50 stands for the concentration at which inhibition is half-maximal.

In the case of `CN(C)C/C=C/C(=O)N1CCc2c(sc3ncnc(Nc4ccc5c(c4)CCC5)c23)C1` [Example 185, N-(2,3-dihydro-1H-inden-5-yl)-7-[(2E)-4-(dimethylamino)but-2-enoyl]-5,6,7,8-tetrahydropyrido [4′,3′:4,5]thieno[2,3-d]pyrimidin-4-amine], the IC50 in the assay with A431 cells was 200 to 1000 nM; with H1975 cells it was 1000 to 10000 nM; in the assay on N87, below 200 nM.
On the same counts, the results for `CCN(C)C/C=C/C(=O)N1CCc2c(sc3ncnc(Nc4cccc(Br)c4)c23)C1` [Example 186, N-(3-bromophenyl)-7-{(2E)-4-[ethyl(methyl)amino]but-2-enoyl}-5,6,7,8-tetrahydropyrido [4′,3′:4,5]thieno[2,3-d]pyrimidin-4-amine] are 200 to 1000 nM, 200 to 1000 nM and below 200 nM.
For `CC(C)N(C)C/C=C/C(=O)N1CCc2c(sc3ncnc(Nc4ccc(Cl)c(Cl)c4)c23)C1` [Example 187, N-(3,4-dichlorophenyl)-7-{(2E)-4-[isopropyl(methyl)amino]but-2-enoyl}-5,6,7,8-tetrahydropyrido[4′,3′:4,5]thieno[2,3-d]pyrimidin-4-amine] the same measures were 200 to 1000 nM, below 200 nM and below 200 nM.
On the same counts, the results for `CCN(CC)C/C=C/C(=O)N1CCc2c(sc3ncnc(Nc4ccc(Cl)c(Cl)c4)c23)C1` [Example 188, N-(3,4-dichlorophenyi)-7-[(2E)-4-(diethylamino)but-2-enoyl]-5,6,7,8-tetrahydropyrido [4′,3′:4,5]thieno[2,3-d]pyrimidin-4-amine] are 200 to 1000 nM, 200 to 1000 nM and below 200 nM.
With `CC(C)N(C)C/C=C/C(=O)N1CCc2c(sc3ncnc(Nc4cccc(Br)c4)c23)C1` [Example 189, N-(3-bromophenyl)-7-{(2E)-4-[isopropyl(methyl)amino]but-2-enoyl}-5,6,7,8-tetrahydropyrido [4′,3′:4,5]thieno[2,3-d]pyrimidin-4-amine], the IC50 with A431 cells is 200 to 1000 nM; with H1975 cells, 200 to 1000 nM; in the assay with N87, below 200 nM.
On to `CCN(C)C/C=C/C(=O)N1CCc2c(sc3ncnc(Nc4ccc(Cl)c(Cl)c4)c23)C1` [Example 190, N-(3,4-dichlorophenyl)-7-{(2E)-4-[ethyl(methyl)amino]but-2-enoyl}-5,6,7,8-tetrahydropyrido [4′,3:4,5]thieno[2,3-d]pyrimidin-4-amine], for which the results for the IC50 with A431 cells, in the assay with H1975 cells and with N87 were 200 to 1000 nM, 200 to 1000 nM and below 200 nM, respectively.
Take `O=C(/C=C/CN1CCOCC1)N1CCc2c(sc3ncnc(Nc4ccc(Cl)c(Cl)c4)c23)C1` [Example 191, N-(3,4-dichlorophenyl)-7-[{2E)-4-morpholin-4-ylbut-2-enoyl]-5,6,7,8-tetrahydropyrido [4′,3′:4,5]thieno[2,3-d]pyrimidin-4-amine]: the IC50 in the assay with A431 cells was 200 to 1000 nM; in the assay with H1975 cells it was 1000 to 10000 nM; with N87, below 200 nM.
For `O=C(/C=C/CN1CCCC1)N1CCc2c(sc3ncnc(Nc4ccc(Cl)c(Cl)c4)c23)C1` [Example 192, N-(3,4-dichlorophenyl)-7-[(2E)-4-pyrrolidin-1-ylbut-2-enoyl]-5,6,7,8-tetrahydropyrido [4′,3′:4,5]thieno[2,3-d]pyrimidin-4-amine], the IC50 with A431 cells is 200 to 1000 nM; with H1975 cells, 200 to 1000 nM; in the assay on N87 it was below 200 nM.
With `O=C(/C=C/CN1CCOCC1)N1CCc2c(sc3ncnc(Nc4cccc(Br)c4)c23)C1` [Example 193, N-(3-bromophenyl)-7-[(2E)-4-morpholin-4-ylbut-2-enoyl]-5,6,7,8-tetrahydropyrido [4′,3′:4,5]thieno[2,3-d]pyrimidin-4-amine], the IC50 in the assay with A431 cells is 1000 to 10000 nM; with H1975 cells it was 1000 to 10000 nM; in the assay on N87, below 200 nM.
